Data: the METLIN SMRT retention time set (Domingo-Almenara et al. 2019)

Assay: gradient 5% acetonitrile 3 min, to 50% in 2 min, to 85% in 15 min, held 3 min, 100 µL/min
Settings: column: Zorbax Extend-C18 2.1 x 50 mm; eluents: water / acetonitrile, 0.1% formic acid
Method in brief: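 Standards, all pure, were combined into mixtures of ~100 molecules and run at 100 μL/min on a Zorbax Extend-C18 column (2.1 × 50 mm, 1.8 μm) with water and acetonitrile, each containing 0.1% formic acid. A coupled quadrupole time-of-flight mass spectrometer operated in positive and negative ionization mode. Retention time values come from computationally picked adduct peaks, each inspected manually.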

| SMILES | RP-LC retention time |
| --- | --- |
| COc1ccc(C)cc1NC(=O)c1nc(-c2cn(Cc3ccc(F)cc3)nn2)no1 | 961 s |
| CC(C)NC(=O)c1ccc(OCC2CCN(C(=O)Cc3ccccc3F)CC2)cc1 | 870 s |
| Cc1ccccc1N1CCN(C(=O)C2=CCN(Cc3cccc(F)c3)CC2)CC1 | 712 s |
| c1cncc(-c2nc(-c3ccc4c(c3)nnn4CCN3CCCCC3)no2)c1 | 614 s |
| CCOc1ccc(CCNC(=O)c2ccc3c(c2)N(CC)C(=O)c2ccccc2O3)cc1OCC | 966 s |
| O=C(Nc1ccc(CN2CCN(c3ccccn3)CC2)cc1)c1ccccc1C(F)(F)F | 564 s |
| COCCCNC(=O)CCc1cc2cc(OC)ccc2[nH]c1=O | 611 s |
| O=C(CCC[C@@H]1[C@H]2CCCN3CCC[C@@H](CN1S(=O)(=O)c1cccs1)[C@@H]23)N1CCOCC1 | 588 s |
| O=C(Cn1c(=O)c(CCC(=O)NC2CCCC2)nc2ccccc21)Nc1ccc(F)cc1 | 808 s |
| COc1cccc(Cc2nc(-c3cn(-c4cccc(F)c4)nn3)no2)c1 | 993 s |
| Fc1cccc(-c2nc(-c3ccc4c(c3)ncn4CCN3CCOCC3)no2)c1 | 642 s |
| COc1cccc(-c2noc(Cn3ccn(-c4ccc(Cl)cc4)c(=O)c3=O)n2)c1OC | 824 s |
| O=C(Nc1ccc(Cn2cnc(C(=O)NCc3ccc(F)cc3)c2)cc1)c1cccc(F)c1 | 769 s |
| O=C(C1CCN(S(=O)(=O)c2ccc(-c3noc(/C=C/c4cccs4)n3)cc2)CC1)N1CCCC1 | 1050 s |
| COc1cccc(NC(=O)N2CCC3(C2)C(=O)N(C)c2ccc(OC)cc23)c1 (centres undefined) | 746 s |
| C[C@]12CCC(=O)C[C@@H]1CC[C@@H]1[C@@H]2CC[C@@]2(C)[C@H]1CC[C@]2(C)O | 1050 s |
| O=C(c1nnc(-c2ccc(S(=O)(=O)N3CCCC3)cc2)o1)N1CCc2ccccc2C1 | 980 s |
| COc1ccc(-n2cc(C(=O)OCc3cccnc3)c3ccccc3c2=O)cc1 | 745 s |
| COCC(=O)N1CCC2(CC1)NC(=O)c1ccccc1O2 | 610 s |
| CC(C)C(=O)Nc1cccnc1 | 583 s |
| COC(=O)C1=CN(c2ccc(OC)cc2)c2ccc(F)cc2S1(=O)=O | 804 s |
| Cc1noc(-c2cccc(OC3CN(C(=O)NCc4ccccc4)C3)c2)n1 | 830 s |
| COCCn1cc2c3c(cccc31)CN(C(=O)Nc1ccc(C)c(C)c1)CC2 | 1020 s |

| SMILES | RP-LC retention time |
| --- | --- |
| COc1ccc(C2Cn3nnc(C(=O)N4CCC(C(=O)NC5CCCCC5)CC4)c3CO2)cc1 (centres undefined) | 860 s |
| COCCOCC(=O)NCC1CCCCC(=O)N1 (centres undefined) | 576 s |
| CC(C)OC(=O)Nc1ccc2nc(-c3cscn3)[nH]c2c1 | 666 s |
| O=C(CCn1nnc2cc(-c3noc(-c4cccc(Br)c4)n3)ccc21)N1CCOCC1 | 980 s |
| O=C(c1cn(-c2ccc(S(=O)(=O)N3CCOCC3)cc2)cn1)N1CCN(c2ncccn2)CC1 | 666 s |
| CC(C)CNc1nc2ccncc2n(Cc2ccccc2)c1=O | 672 s |
| Cc1ccc(Sc2nccnc2N2CCCC(C(=O)NCCC(C)C)C2)cc1 (centres undefined) | 1140 s |
| CC(=O)OC1CCN(C(=O)NC(C)C)CC1 | 621 s |
| CCCS(=O)(=O)N1CCOc2ccc(NC(=O)NCC)cc2C1 | 696 s |
| COc1ccc(C(=O)c2cccc(N)c2)cc1OC | 630 s |
| CCOc1ccccc1C(=O)N1CCC2(CC1)N=C(c1cccc(Br)c1)NO2 | 951 s |
| COCc1cnc2c(c1SCc1cccc(Cl)c1)c(=O)n(C)c(=O)n2C | 1060 s |
| CCOC(=O)C(C)Oc1cccc2c(=O)n(CC(=O)NCc3ccco3)ccc12 (centres undefined) | 725 s |
| Cc1cnc(C(=O)N2CC(c3nc(CCOC4CCCC4)no3)C2)cn1 | 777 s |
| Cc1ccc2nc(-c3ccc(O)cc3)c(Nc3ccc4c(c3)OCO4)n2c1 | 633 s |
| CC1=NC(C)(C)CC2CCC(O)C12 (centres undefined) | 683 s |
| Cc1cc(C)c(C)c(S(=O)(=O)N2CCN(c3nc4ccncc4n(C)c3=O)CC2)c1C | 755 s |
| O=S(=O)(c1cc(-c2cc(C(F)(F)F)on2)cs1)N1CCN(C2CCCCC2)CC1 | 775 s |
| O=C(NCc1ccco1)N1CCCn2nc(-c3cccs3)cc2C1 | 752 s |
| COCC1(O)CCOC2(CCN(Cc3ccccc3C)CC2)C1 (centres undefined) | 591 s |
| C=CCn1c(C)c(CC(=O)NC2CCCC2)c(=O)n2nc(-c3ccccc3)nc12 | 684 s |
| CCC(=O)Nc1ccc(OCc2cc(C(=O)NC3CCCC3)no2)cc1 | 740 s |
| O=C(Nc1cnc2ccccc2c1)c1cccc([N+](=O)[O-])c1 | 717 s |

| SMILES | RP-LC retention time |
| --- | --- |
| O=C(NC1CCCC1)C1CC(=O)N(c2ccc3c(c2)CCN3C(=O)C2CCC2)C1 (centres undefined) | 760 s |
| COc1ccc(OC)c(CNC(=O)c2[nH]c(C)c(S(=O)(=O)N3CCCC3)c2C)c1 | 822 s |
| CCN1CCN(c2ccc(NC(=O)C(C)(C)C)c(C(=O)O)c2)CC1 | 594 s |
| CC(C)C[C@H]1C(=O)N2CCC[C@H]2[C@]2(O)O[C@](NC(=O)[C@@H]3C=C4c5cccc6[nH]c(Br)c(c56)CC4N(C)C3)(C(C)C)C(=O)N12 (some centres undefined) | 830 s |
| Cc1ccc(C(=O)NCCCN2CCCC2)cc1NC(=O)C1=CSCCO1 | 596 s |
| CC(C(=O)NCCN1CCCC1)n1c2ccccc2c2cnn(C)c(=O)c21 (centres undefined) | 607 s |
| CCCNC(=O)C1=Cc2cc(Cl)cc(OC)c2OC=C1 | 977 s |
| O=C(CN1CCN(Cc2ccccc2)C(=O)C1=O)N1CCN(c2cccc(Cl)c2)CC1 | 828 s |
| Cc1cccc(NC(=O)CSc2nnc(C)s2)c1 | 715 s |
| CCc1nc(NCc2ccncc2)ncc1C(=O)O | 555 s |
| CCOc1cccc(C(=O)Nc2nc(-c3ccc(C(C)(C)C)cc3)cs2)c1 | 1430 s |
| Cc1oc(-c2[nH]ncc2C(=O)N2CCCC2)cc1S(=O)(=O)Nc1ccccc1F | 676 s |
| O=C(Nc1cccc(Cl)c1)c1nn2c(C(F)(F)F)cc(-c3ccco3)nc2c1Cl | 1230 s |
| COc1ccc(C2Cn3cnc(C(=O)N4CCC(C(=O)NCC5CCCO5)CC4)c3CO2)cc1 (centres undefined) | 655 s |
| COc1ccc(NC(=O)N2CCC(c3nc(C(=O)N4CCCC4)c(C)o3)CC2)cc1 | 727 s |
| O=C(Nc1cccc(F)c1)N1CCN(c2ncccc2-c2nnc(C3CC3)o2)CC1 | 783 s |
| O=C(C1=NN(Cc2cc(F)cc(F)c2)c2ccccc2S1(=O)=O)N1CCCCC1 | 956 s |
| Cc1cc(NS(=O)(=O)c2ccc(-c3nnc(C4CCC4)o3)o2)ccc1F | 963 s |
| CC(=O)Nc1ccc(C2(C(=O)N3CCCCCC3)CCC2)cc1 | 769 s |
| COc1cc(N)c(Cl)cc1C(=O)OCCCN1CCCCC1 | 655 s |
| Cc1ccc(Cn2c(N3CCC(C(=O)NC4CC4)CC3)nc3ccsc3c2=O)cc1 | 783 s |
| Cc1noc(C2CN(Cc3cc(Br)ccc3F)C2)n1 | 554 s |
| CC(=O)N(Cc1nn(C)c2c1CN(S(=O)(=O)c1ccc(F)c(Cl)c1)CC2)c1ccccc1 | 860 s |

| SMILES | RP-LC retention time |
| --- | --- |
| O=C(COc1ccc(F)cc1)Nc1ccc(-c2nc(-c3ccc(F)cc3)no2)cc1 | 1220 s |
| Cc1sc2ncnc(N3CCCCC3)c2c1C(=O)Nc1cc(F)c(F)c(F)c1 | 1230 s |
| CCC(=O)NCCc1csc(C2CCCN(C(=O)C3CCC3)C2)n1 (centres undefined) | 676 s |
| Cc1ccccc1NC(=O)N1CCC(c2cc3n(n2)CCCN(C)C3=O)CC1 | 660 s |
| Cc1ccc(Cn2c(N3CCCC(C(=O)NCc4ccc(C)o4)C3)nc3ccsc3c2=O)cc1 (centres undefined) | 952 s |
| CCCN1CCN(CCCNC(=O)Cn2c3ccccc3c3cnn(C)c(=O)c32)CC1 | 560 s |
| Cc1ccc(C)c(N2CCN(C(=O)Cn3cnc4nc5c(cc4c3=O)CCCC5)CC2)c1 | 893 s |
| COc1ccc(-c2cc(C(=O)Nc3cc(F)cc(F)c3)sn2)cc1 | 1200 s |
| O=C(NCc1ccccc1)c1cc2c(=O)n(Cc3ccccc3)ccc2s1 | 896 s |
| Cn1c(=O)c2c3c(cnc2n(C)c1=O)C(=O)CC(c1cccc(Cl)c1)C3 (centres undefined) | 1020 s |
| CCOc1ccc(-c2cn3ccn(-c4cc(C)c(Cl)cc4OC)c(=O)c3n2)cc1 | 972 s |
| C=CCN1CCN(C(=O)c2cn(-c3ccc(-c4nc(C(C)(C)C)no4)cn3)cn2)CC1 | 680 s |
| COc1cccc(-c2[nH]ncc2CN2C[C@@H]3CCN(S(C)(=O)=O)C[C@]3(CF)C2)c1 | 599 s |
| CCS(=O)(=O)N1CCC[C@@H]2CN3CCc4cc(OC)ccc4[C@@H]3C[C@@H]21 | 670 s |
| CCOc1cccc(-c2noc(Cn3cnc4c(cnn4-c4cc(Cl)ccc4C)c3=O)n2)c1 | 1230 s |
| Cc1cc(C)cc(-n2ccnc2SCC(=O)Nc2cc(C)on2)c1 | 755 s |
| O=S(=O)(Cc1cccc(Cl)c1)NCCc1noc(-c2ccccc2)n1 | 971 s |
| CC(C)CCC(=O)N1CCC2(CC1)N(C)C(=O)CS2(=O)=O | 644 s |
| Cc1c(C(=O)NC2CC2)cc(-c2ccc(F)cc2)n1C | 830 s |
| Cn1nc(C(=O)N2CCCC(C(=O)NC3CC3)C2)c2c1CCN(C(=O)Cc1cccc(F)c1)C2 (centres undefined) | 666 s |
